Experimental data from the supplement of paper PMC13380429.
Structures can show the parent of a compound that is named as a salt.

Legend:
Conditions in all cases: 72 h
HepG2 [1] = test: drug sensitivity score (DSS) for viability; higher = more toxic; extreme values may be limits of the assay
Vero E6 [2] = test: as above
Calu-3 [3] = test: as above
U2OS [4] = test: as above
Caco-2 [5] = test: as above
HepG2 [6] = test: cell viability relative to DMSO; higher = less toxic
Vero E6 [7] = test: as above
Calu-3 [8] = test: as above
U2OS [9] = test: as above
Caco-2 [10] = test: as above
HepG2 [11] = test: relative viability EC50 (midpoint between 100% and the lowest measured viability); higher = less toxic
Vero E6 [12] = test: as above
Calu-3 [13] = test: as above
U2OS [14] = test: as above
Caco-2 [15] = test: as above

Row | SMILES | drug sensitivity score (HepG2 [1]) | drug sensitivity score (Vero E6 [2]) | drug sensitivity score (Calu-3 [3]) | drug sensitivity score (U2OS [4]) | drug sensitivity score (Caco-2 [5]) | cell viability (HepG2 [6]; 1 nM) [%] | cell viability (HepG2 [6]; 10 nM) [%] | cell viability (HepG2 [6]; 100 nM) [%] | cell viability (HepG2 [6]; 1000 nM) [%] | cell viability (HepG2 [6]; 10000 nM) [%] | cell viability (Vero E6 [7]; 1 nM) [%] | cell viability (Vero E6 [7]; 10 nM) [%] | cell viability (Vero E6 [7]; 100 nM) [%] | cell viability (Vero E6 [7]; 1000 nM) [%] | cell viability (Vero E6 [7]; 10000 nM) [%] | cell viability (Calu-3 [8]; 1 nM) [%] | cell viability (Calu-3 [8]; 10 nM) [%] | cell viability (Calu-3 [8]; 100 nM) [%] | cell viability (Calu-3 [8]; 1000 nM) [%] | cell viability (Calu-3 [8]; 10000 nM) [%] | cell viability (U2OS [9]; 1 nM) [%] | cell viability (U2OS [9]; 10 nM) [%] | cell viability (U2OS [9]; 100 nM) [%] | cell viability (U2OS [9]; 1000 nM) [%] | cell viability (U2OS [9]; 10000 nM) [%] | cell viability (Caco-2 [10]; 1 nM) [%] | cell viability (Caco-2 [10]; 10 nM) [%] | cell viability (Caco-2 [10]; 100 nM) [%] | cell viability (Caco-2 [10]; 1000 nM) [%] | cell viability (Caco-2 [10]; 10000 nM) [%] | relative viability EC50 (HepG2 [11]) [µM] | relative viability EC50 (Vero E6 [12]) [µM] | relative viability EC50 (Calu-3 [13]) [µM] | relative viability EC50 (U2OS [14]) [µM] | relative viability EC50 (Caco-2 [15]) [µM]
1 | O=C(NCc1ccccn1)Nc1nnc(-c2ccco2)o1 [NK-252] | 6.5 | 0 | 0 | 0 | 1.4 | 104 | 97.4 | 90.4 | 77.2 | 30.6 | 94.5 | 104 | 104 | 103 | 101 | 104 | 99.9 | 94.2 | 103 | 107 | 103 | 101 | 105 | 99.3 | 103 | 103 | 94.6 | 103 | 91.5 | 80.7 | 1.47 | > 10 | > 10 | > 10 | > 10
2 | Nc1nc(=O)c2sc(=O)n([C@@H]3O[C@H](CO)[C@@H](O)[C@H]3O)c2[nH]1 | 0 | 0 | 0 | 0 | 0 | 91.6 | 99.5 | 107 | 107 | 97.2 | 94.9 | 98.7 | 97 | 95.8 | 102 | 94.2 | 110 | 97 | 95.3 | 97.5 | 97.2 | 93.6 | 95.4 | 102 | 102 | 95.1 | 90.6 | 92.7 | 99.6 | 103 | > 10 | > 10 | > 10 | > 10 | > 10
3 | CN1[C@@H]2CC[C@H]1C[C@@H](OC(=O)C(CO)c1ccccc1)C2 (stereo not given in full) [ATROPINE SULFATE] | 0 | 0 | 0 | 0 | 0 | 102 | 91.5 | 105 | 84.3 | 98.2 | 112 | 99.7 | 109 | 99.4 | 106 | 96.2 | 102 | 88.4 | 104 | 96.1 | 96.5 | 102 | 102 | 102 | 103 | 93.2 | 95 | 67.1 | 99.6 | 98.5 | > 10 | > 10 | > 10 | > 10 | > 10
4 | Cc1c(F)cc(C(=O)NC2CC2)cc1-c1c(F)cn2c(C(C)(C)C)nnc2c1F [AL-8697] | 0 | 1.4 | 0 | 0 | 0 | 96.5 | 105 | 90.9 | 105 | 94.7 | 95.8 | 100 | 93.9 | 86.3 | 87 | 95.7 | 99.2 | 97 | 88.4 | 102 | 98.9 | 95.9 | 94.1 | 93.1 | 93.7 | 95.4 | 93.5 | 97.7 | 93.4 | 95.3 | > 10 | > 10 | > 10 | > 10 | > 10
5 | COc1cc2c(cc1OC)-c1cc3ccc(OC)c(OC)c3c[n+]1CC2 [palmatine-chloride] | 0.6 | 0 | 0 | 0 | 0 | 110 | 101 | 107 | 105 | 77.1 | 100 | 99.3 | 99.6 | 102 | 101 | 94.1 | 105 | 100 | 90.1 | 90 | 101 | 101 | 98.5 | 102 | 92.6 | 103 | 99.1 | 92.8 | 102 | 90.9 | > 10 | > 10 | > 10 | > 10 | > 10
6 | CC(C)Cn1cnc2c(N)nc3ccccc3c21 [imiquimod] | 0 | 0 | 0 | 0 | 0 | 93.6 | 95.5 | 100 | 109 | 112 | 93.1 | 93.2 | 99 | 88.9 | 100 | 103 | 96 | 102 | 94.5 | 103 | 92.7 | 101 | 94.3 | 100 | 105 | 96.4 | 92.9 | 105 | 97.7 | 100 | > 10 | > 10 | > 10 | > 10 | > 10
7 | Cc1cc(OCc2nnc(SC3CCCC3)n2-c2cccnc2)ccc1-c1ccc(S(C)(=O)=O)cc1 [NMS-873] | 19.7 | 7.5 | 7.1 | 8.1 | 7.3 | 107 | 96.2 | 61.6 | 19.7 | 1.5 | 105 | 102 | 107 | 88 | 0.3 | 88.8 | 93.1 | 92.1 | 85.3 | 16.2 | 97 | 98.5 | 91.1 | 84.6 | 0.2 | 102 | 101 | 83.6 | 77.7 | 17.8 | 0.175 | 2.19 | 1.85 | 1.96 | 1.64
8 | C[C@H](CSC(=O)c1ccccc1)C(=O)N1C[C@@H](Sc2ccccc2)C[C@H]1C(=O)O [zofenopril-calcium] | 0 | 0 | 0.2 | 0 | 0 | 101 | 108 | 94.7 | 102 | 95.3 | 114 | 99.9 | 103 | 101 | 106 | 92.9 | 90.7 | 105 | 96 | 88.3 | 98.4 | 102 | 99.6 | 95.1 | 101 | 86.1 | 94.3 | 106 | 96.6 | 99.6 | > 10 | > 10 | > 10 | > 10 | > 10
9 | CC(C)(C)CC(C)(C)c1cc(Cc2cc(C(C)(C)CC(C)(C)C)cc(-n3nc4ccccc4n3)c2O)c(O)c(-n2nc3ccccc3n2)c1 [bisoctrizole] | 0 | 0 | 0 | 0 | 0.1 | 98.6 | 108 | 97.5 | 98.6 | 105 | 103 | 101 | 96.5 | 98.1 | 101 | 88.8 | 99 | 90.8 | 105 | 103 | 96.8 | 99.7 | 95.5 | 99.5 | 94.4 | 98.6 | 99.3 | 97.1 | 98.9 | 87.7 | > 10 | > 10 | > 10 | > 10 | > 10
10 | CCc1c(C(=O)Nc2cc(S(=O)(=O)N(CC)CC)ccc2O)[nH]c(C)c1C(C)=O [XD-14] | 0.5 | 0.2 | 0 | 0.1 | 0.7 | 96.8 | 106 | 116 | 97.6 | 84.6 | 96 | 102 | 89.5 | 91.5 | 95.9 | 111 | 89.2 | 104 | 103 | 108 | 99.3 | 93 | 95.6 | 100 | 87.4 | 101 | 93.5 | 97.2 | 98.8 | 80.8 | > 10 | > 10 | > 10 | > 10 | > 10
11 | COC(=O)c1ccc2c(c1)NC(=O)/C2=C(\Nc1ccc(N(C)C(=O)CN2CCN(C)CC2)cc1)c1ccccc1 [nintedanib] | 1.5 | 0 | 0 | 0 | 0 | 98.9 | 101 | 103 | 91.2 | 80.3 | 110 | 102 | 106 | 100 | 98.5 | 106 | 98 | 102 | 101 | 90.4 | 101 | 101 | 97.1 | 104 | 94 | 93.1 | 108 | 102 | 94.7 | 107 | > 10 | > 10 | > 10 | > 10 | > 10
12 | Cc1cc(N2CCCCC2)nc2ccccc12 [ML204] | 0 | 0 | 0 | 0 | 0 | 92 | 93.5 | 88.8 | 104 | 102 | 91.7 | 92.7 | 87.3 | 92.2 | 103 | 113 | 95.5 | 101 | 107 | 110 | 99.7 | 98.4 | 96.9 | 102 | 101 | 87.9 | 97.4 | 84.3 | 96.2 | 87.9 | > 10 | > 10 | > 10 | > 10 | > 10
13 | Oc1cc(O)c2c(c1)O[C@H](c1ccc(O)c(O)c1)[C@H](O)[C@H]2c1c(O)cc(O)c2c1O[C@H](c1ccc(O)c(O)c1)[C@H](O)C2 [procyanidin-B-2] | 0 | 0 | 0 | 0 | 0 | 98.5 | 100 | 96.8 | 99.3 | 94.7 | 97 | 98.2 | 91.8 | 101 | 93.4 | 112 | 95.6 | 100 | 93.1 | 109 | 103 | 99.9 | 106 | 99.5 | 104 | 106 | 102 | 102 | 98.7 | 105 | > 10 | > 10 | > 10 | > 10 | > 10
